Laboratory results published in publication PMC3506268, “Microneedle pretreatment enhances the percutaneous permeation of hydrophilic compounds with high melting points” (BMC Pharmacology & Toxicology, 2012).
Read-outs that look alike come from different tables or passages of the source.

Tests used:
in vitro = conditions: for Jmax: 80% saturated solution in PBS, 6 h; for Jmax / Papp at 6 h / recovery: mean, n = 5–6; for Papp at 6 h / recovery: female, Holstein Friesian, bovine; for Papp at 6 h: 10^-6 Papp
Method: The skin was obtained from bovine udders, all of which were harvested from Holstein Friesian cows which died at a slaughterhouse for food production, and the cleaned skin samples were stored at - 20°C until use. After thawing at room temperature split skin samples with a thickness of 600 μm ± 50 μm were produced using an electrical microtome (Zimmer, Eschbach, Germany), whereby damaged skin samples were excluded from the study.
Prior to the experiment split skin samples with appropriate size of 2 x 2 cm were incubated in phosphate buffered saline (PBS) for 30 minutes. They were placed on a styropor panel and fixed with needles beyond the subsequent diffusion area of the skin samples before the microneedle rollers were rolled in four axes radial over the skin surface (Figure 1 C).
The diffusion experiments were performed in Franz-type diffusion cells obtained from PermeGear (Riegelsville, PA, USA) with a receptor chamber of approximately 12 ml and a diffusion area of approximately 1.77 cm². Sonicated PBS was used as receptor fluid. […] The donor chambers were covered with parafilm® (American Can Company, Baltimore, USA) and were checked for precipitation of the compounds during the whole experiment. Aliquots were taken from the receptor fluid and replaced by the same amount of fresh PBS at 0, 0.5, 1, 2, 4, and 6 hours. Each treatment (untreated control, 200 μm microneedle, and 300 μm microneedle) was performed in duplicate per animal (n = 6).
The receptor fluid samples (100 μl) were analysed by high-performance liquid-chromatography, the methodology of which has derived from recent studies. […] The separation took place on a reversed phase column (LiChroCART 125–4, LiChrospher 100 RP-18e, 5 μm (Merck, Darmstadt, Germany)), which was maintained at 40°C.
The linear part of the gradient of the permeation curve (time vs. concentration in the receptor fluid) represents the maximum flux Jmax (μg/cm²/h) and is employed to calculate the apparent permeability coefficient Papp (cm/s) according to Niedorf et al. 2008 [23]. Differences between control samples and pretreated skin samples were evaluated by Friedman test followed by Dunn´s multiple comparison test (GraphPad Prism 4.01 (GraphPad Software Inc., San Diego, USA). A 0.05 significance level was adopted.

[1] = parameters: method as in earlier work; conditions: cited from earlier work
[2] = parameters: method as in PMID 20624460; conditions: microneedle treated skin, in vitro; cited from earlier work
[3] = 200 μm microneedle pretreatment
[4] = 300 μm microneedle pretreatment
[5] = 300 μm microneedle pretreatment, * = p<0.05 versus control

Row | Jmax (in vitro; [3]) [μg/cm²/h] | Increase of maximum flux (Jmax) and Papp-value versus untreated skin (in vitro; [4]) | Jmax (in vitro; [4]) [μg/cm²/h] | Papp at 6 h (in vitro; [5]) [×10⁻⁶ cm/s] | Papp at 6 h (in vitro; untreated control skin) [×10⁻⁶ cm/s] | recovery (in vitro; [3]) [%] | recovery (in vitro; [4]) [%] | recovery (in vitro; untreated control skin) [%] | Jmax (in vitro; untreated control skin) [μg/cm²/h] | Higher flux through pretreated skin compared to untreated skin (in vitro; [3]) | Higher flux through pretreated skin compared to untreated skin (in vitro; [4]) | Papp at 6 h (in vitro; [3]) [×10⁻⁶ cm/s] | SMILES | logKo/w [1] | logKo/w ([1]; listed as diclofenac) | Permeation enhancement [2]
1 | 8.75 | ≤ 7 fold | 11.55 | 1.24 | 0.18 | 3.17 | 3.54 | 0.49 | 1.72 | – | – | – | O=C(O)Cc1ccccc1Nc1c(Cl)cccc1Cl [Diclofenac] | 0.7 | < 1 | –
2 | – | up to 3 fold | – | – | – | 11.2 | 17.8 | 6.76 | – | twofold | threefold | – | CC(C)Cc1ccc(C(C)C(=O)O)cc1 (stereo not drawn) [Ibuprofen, ibuprofen] | – | – | –
3 | 2.36 | up to 3 fold | 2.99 | 0.35 | 0.12 | 0.76 | 0.96 | 0.3 | 1.03 | twofold | threefold | 0.28 | CC(C(=O)O)c1cccc(C(=O)c2ccccc2)c1 (stereo not drawn) [Ketoprofen, ketoprofen] | – | – | –
4 | – | – | – | – | – | – | – | – | – | – | – | – | CC(=O)Oc1ccccc1C(=O)O [acetylsalicylic acid] | – | – | up to 2 times
